In brackets after ≈: the same amount, converted by molar mass.

The test system of the first test is Mycobacterium tuberculosis (M. tuberculosis H37Rv). Briefly: Antimicrobial Assay (Agar Plate Dilution Method), M. tuberculosis H37Rv. The test is classed as cell-based. The note with it: 336 h, 7H11 agar medium, cultured at 37° C. for 14 days, read-out: minimum inhibitory concentration.
Take `O=[N+]([O-])c1cn2c(n1)O[C@@H](COc1ccc(N3CCC(Cc4ccc(Oc5ccc(OC(F)(F)F)cc5)cc4)CC3)cc1)CC2` [Example 228, (R)-2-nitro-7-(4-{4-[4-(4-trifluoromethoxyphenoxy)benzyl]piperidin-1-yl}phenoxymethyl)-6,7-dihydro-5H-imidazo[2,1-b][1,3]oxazine]: the MIC was not above 0.4 ng/mL.

The subject of a further test is Mycobacterium tuberculosis (M. tuberculosis kurono). Briefly: Antimicrobial Assay (Agar Plate Dilution Method), M. tuberculosis kurono. Type of test: cell-based. The following applies: 336 h, M. tuberculosis kurono, 7H11 agar medium, cultured at 37° C. for 14 days, read-out: Minimum Inhibitory Concentration.
As to `O=[N+]([O-])c1cn2c(n1)O[C@@H](COc1ccc(N3CCC(Cc4ccc(Oc5ccc(OC(F)(F)F)cc5)cc4)CC3)cc1)CC2` [Example 228, (R)-2-nitro-7-(4-{4-[4-(4-trifluoromethoxyphenoxy)benzyl]piperidin-1-yl}phenoxymethyl)-6,7-dihydro-5H-imidazo[2,1-b][1,3]oxazine], the MIC worked out at 0.8 ng/mL (≈ 0.00128 µM).

`O=[N+]([O-])c1cn2c(n1)OC(COc1ccc(C3CCN(Cc4ccc(OC(F)(F)F)cc4)CC3)cc1)CC2` (stereo not shown) [Example 364, 2-nitro-7-{4-[1-(4-trifluoromethoxybenzyl)piperidin-4-yl]phenoxymethyl}-6,7-dihydro-5H-imidazo[2,1-b][1,3]oxazine]: the MIC came out at 24 ng/mL (≈ 0.0451 µM).

For the molecule `O=[N+]([O-])c1cn2c(n1)O[C@@H](COc1ccc(N3CCN(C/C=C/c4ccc(C(F)(F)F)cc4)CC3)cc1)CC2` [Example 372, (R)-2-nitro-7-(4-{4-[(E)-3-(4-trifluoromethylphenyl)allyl]piperazin-1-yl}phenoxymethyl)-6,7-dihydro-5H-imidazo[2,1-b][1,3]oxazine], the MIC is 6 ng/mL (≈ 0.011 µM).

For the molecule `O=[N+]([O-])c1cn2c(n1)O[C@@H](COc1ccc(-c3ccc(N4CCC(O)(C(F)(F)F)CC4)cc3)cc1)CC2` [Example 379, 1-[4′-((R)-2-nitro-6,7-dihydro-5H-imidazo[2,1-b][1,3]oxazin-7-ylmethoxy)biphenyl-4-yl]-4-trifluoromethylpiperidin-4-ol], the MIC is 100 ng/mL (≈ 0.193 µM).

`CC1(COc2ccc(N3CCC(CCc4ccc(OC(F)(F)F)cc4)CC3)cc2)CCn2cc([N+](=O)[O-])nc2O1` (stereo not shown) [Example 382, 7-methyl-2-nitro-7-(4-{4-[2-(4-trifluoromethoxyphenyl)ethyl]piperidin-1-yl}phenoxymethyl)-6,7-dihydro-5H-imidazo[2,1-b][1,3]oxazine]: the MIC turned out to be 12 ng/mL (≈ 0.0214 µM).

In the case of `O=[N+]([O-])c1cn2c(n1)O[C@@H](COc1ccc(N3CCC(Cc4ccc(OC(F)(F)F)cc4)CC3)cc1)CC2` [Example 383, (R)-2-nitro-7-{4-[4-(4-trifluoromethoxybenzyl)piperidin-1-yl]phenoxymethyl}-6,7-dihydro-5H-imidazo[2,1-b][1,3]oxazine], the MIC was 3 ng/mL (≈ 0.00563 µM).

Take `O=[N+]([O-])c1cn2c(n1)O[C@@H](COc1ccc(N3CCC(CCCOc4cccc(C(F)(F)F)c4)CC3)cc1)CC2` [Example 395, (R)-2-nitro-7-(4-{4-[3-(3-trifluoromethylphenoxy)propyl]piperidin-1-yl}phenoxymethyl)-6,7-dihydro-5H-imidazo[2,1-b][1,3]oxazine]: the MIC amounted to 3 ng/mL (≈ 0.00535 µM).

Regarding `O=[N+]([O-])c1cn2c(n1)O[C@@H](COc1ccc(N3CCC(CCCc4ccc(C(F)(F)F)cc4)CC3)cc1)CC2` [Example 400, (R)-2-nitro-7-(4-{4-[3-(4-trifluoromethylphenyl)propyl]piperidin-1-yl}phenoxymethyl)-6,7-dihydro-5H-imidazo[2,1-b][1,3]oxazine], the MIC was not above 0.4 ng/mL.

`CC1(COc2ccc(N3CCN(C/C=C/c4ccc(OC(F)(F)F)cc4)CC3)cc2)CCn2cc([N+](=O)[O-])nc2O1` (stereo not shown) [Example 411, 7-methyl-2-nitro-7-(4-{4-[(E)-3-(4-trifluoromethoxyphenyl)allyl]piperazin-1-yl}phenoxymethyl)-6,7-dihydro-5H-imidazo[2,1-b][1,3]oxazine]: the MIC worked out at 6 ng/mL (≈ 0.0105 µM).

Take `O=[N+]([O-])c1cn2c(n1)O[C@@H](COc1ccc(N3CCN(CC4CCC(C(F)(F)F)CC4)CC3)cc1)CC2` (stereo partly drawn) [Example 414, (R)-2-nitro-7-{4-[4-(4-trifluoromethyl-cyclohexylmethyl)piperazin-1-yl]phenoxymethyl}-6,7-dihydro-5H-imidazo[2,1-b][1,3]oxazine]: the MIC was 6 ng/mL (≈ 0.0115 µM).

For `O=[N+]([O-])c1cn2c(n1)O[C@@H](COc1ccc(N3CCC(C4CCN(Cc5ccc(C(F)(F)F)cc5)CC4)CC3)cc1)CC2` [Example 415, (R)-2-nitro-7-{4-[1′-(4-trifluoromethylbenzyl)-4,4′-bipiperidin-1-yl]phenoxymethyl}-6,7-dihydro-5H-imidazo[2,1-b][1,3]oxazine], the MIC stood at 1.5 ng/mL (≈ 0.0025 µM).

As for `O=[N+]([O-])c1cn2c(n1)O[C@@H](COc1ccc(N3CCC(Oc4ccc(SC(F)(F)F)cc4)CC3)cc1)CC2` [Example 446, (R)-2-nitro-7-{4-[4-(4-trifluoromethylsulfanylphenoxy)piperidin-1-yl]phenoxymethyl}-6,7-dihydro-5H-imidazo[2,1-b][1,3]oxazine], the MIC was 3 ng/mL (≈ 0.00545 µM).

For `COC1(c2ccc(C(F)(F)F)cc2)CCN(c2ccc(OC[C@H]3CCn4cc([N+](=O)[O-])nc4O3)cc2)CC1` [Example 471, (R)-7-{4-[4-methoxy-4-(4-trifluoromethylphenyl)piperidin-1-yl]phenoxymethyl}-2-nitro-6,7-dihydro-5H-imidazo[2,1-b][1,3]oxazine], the MIC came to 12 ng/mL (≈ 0.0225 µM).

Consider `CC(C)(c1ccc(OCc2ccc(C(F)(F)F)cc2)cc1)N1CCN(c2ccc(OC[C@H]3CCn4cc([N+](=O)[O-])nc4O3)cc2)CC1` [Example 490, (R)-7-[4-(4-{1-methyl-1-[4-(4-trifluoromethylbenzyloxy)phenyl]ethyl}piperazin-1-yl)phenoxymethyl]-2-nitro-6,7-dihydro-5H-imidazo[2,1-b][1,3]oxazine], for which the MIC was 0.8 ng/mL (≈ 0.00123 µM).

The test is the same for the next values; noted with them: 336 h, read-out: Minimum Inhibitory Concentration.
For the molecule `O=[N+]([O-])c1cn2c(n1)O[C@@H](COc1ccc(N3CCN(S(=O)(=O)C(F)(F)C(F)(F)C(F)(F)C(F)(F)F)CC3)cc1)CC2` [Example 380, (R)-2-nitro-7-{4-[4-(nonafluorobutane-1-sulfonyl)piperazin-1-yl]phenoxymethyl}-6,7-dihydro-5H-imidazo[2,1-b][1,3]oxazine], the MIC is 12 ng/mL (≈ 0.0187 µM).

The values are drawn from patent publication US9051333B2, “6,7-dihydroimidazo [2,1-b] [1,3]oxazine bactericides” (OTSUKA PHARMACEUTICAL CO., LTD., priority 2011, dated 2015).
